{"source": "paper PMC3923901", "about": "(Journal of structural and functional genomics, 2013)", "key": {"[1]": {"target": "T1, SACOL2570 (putative galactoside O-acetyltransferase) (Staphylococcus aureus, UniProt Q5HCZ5)", "test": "ITC, […] stoichiometry", "type": "binding"}, "[2]": {"target": "T1, SACOL2570 (putative galactoside O-acetyltransferase)", "test": "crystal structure", "type": "binding"}, "crystal structure": {"target": "the molecule itself", "test": "crystal structure"}}}
{"molecule": "CC(=O)SCCNC(=O)CCNC(=O)[C@H](O)C(C)(C)COP(=O)(O)OP(=O)(O)OC[C@H]1O[C@@H](n2cnc3c(N)ncnc32)[C@H](O)[C@@H]1OP(=O)(O)O", "note": "[AcCoA]", "values": [{"measurement": "Kd", "setting": "[1]", "value": "460 ± 35", "unit": "µM"}]}
{"molecule": "CC(C)(COP(=O)(O)OP(=O)(O)OC[C@H]1O[C@@H](n2cnc3c(N)ncnc32)[C@H](O)[C@@H]1OP(=O)(O)O)[C@@H](O)C(=O)NCCC(=O)NCCS", "note": "[CoA]", "values": [{"measurement": "Kd", "setting": "[2]", "value": "660 ± 13", "unit": "µM"}]}
{"molecule": "putative galactoside O-acetyltransferase SACOL2570 from Staphylococcus aureus subsp. COL (enzyme, selenomethionine (Se-Met-SACOL2570) in the protein of the apo crystals (PDB 3FTT) only) MTEKEKMLAEKWYDANFDQYLINERARAKDICFELNHTRPSATNKRKELIDQLFQTTTDNVSISIPFDTDYGWNVKLGKNVYVNTNCYFMDGGQITIGDNVFIGPNCGFYTATHPLNFHHRNEGFEKAGPIHIGSNTWFGGHVAVLPGVTIGEGSVIGAGSVVTKDIPPHSLAVGNPCKVVRKIDNDLPSETLNDETIK", "values": [{"measurement": "stoichiometry N", "setting": "crystal structure", "value": 3}]}
